Source: the supplement of paper PMC8960247
Counter-ions that a name gives are not always drawn. ± gives the standard error.

What was measured:
621-102 (TSC2-deficient) [1] = test: relative viability vs DMSO; higher = less cytotoxic; conditions: serum: 10% FBS, 72 h
621-103 (TSC2-rescued) = test: as above; conditions: serum: 10% FBS, 72 h
621-102 (TSC2-deficient) [2] = test: relative viability vs DMSO (fraction); higher = less cytotoxic; conditions: serum: 0.1% FBS, 72 h
UMB1949 (TSC2-deficient) = test: as above; conditions: serum: 0.1% FBS, 72 h;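 also: renal angiomyolipoma cell lines screened in 384-well plates, viability normalized per plate to DMSO-treated cells, each plate carrying 50 nM rapamycin and 1 µM staurosporine controls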

Row | SMILES | relative viability (621-102 (TSC2-deficient) [1]; 0.0001 µM) | relative viability (621-102 (TSC2-deficient) [1]; 0.001 µM) | relative viability (621-102 (TSC2-deficient) [1]; 0.01 µM) | relative viability (621-102 (TSC2-deficient) [1]; 0.1 µM) | relative viability (621-102 (TSC2-deficient) [1]; 1 µM) | relative viability (621-102 (TSC2-deficient) [1]; 10 µM) | relative viability (621-103 (TSC2-rescued); 0.0001 µM) | relative viability (621-103 (TSC2-rescued); 0.001 µM) | relative viability (621-103 (TSC2-rescued); 0.01 µM) | relative viability (621-103 (TSC2-rescued); 0.1 µM) | relative viability (621-103 (TSC2-rescued); 1 µM) | relative viability (621-103 (TSC2-rescued); 10 µM) | relative viability (621-102 (TSC2-deficient) [2]; 0.0128 nM) | relative viability (621-102 (TSC2-deficient) [2]; 0.064 nM) | relative viability (621-102 (TSC2-deficient) [2]; 0.32 nM) | relative viability (621-102 (TSC2-deficient) [2]; 1.6 nM) | relative viability (621-102 (TSC2-deficient) [2]; 8 nM) | relative viability (621-102 (TSC2-deficient) [2]; 40 nM) | relative viability (621-102 (TSC2-deficient) [2]; 200 nM) | relative viability (621-102 (TSC2-deficient) [2]; 1000 nM) | relative viability (621-102 (TSC2-deficient) [2]; 5000 nM) | relative viability (UMB1949 (TSC2-deficient); 0.0128 nM) | relative viability (UMB1949 (TSC2-deficient); 0.064 nM) | relative viability (UMB1949 (TSC2-deficient); 0.32 nM) | relative viability (UMB1949 (TSC2-deficient); 1.6 nM) | relative viability (UMB1949 (TSC2-deficient); 8 nM) | relative viability (UMB1949 (TSC2-deficient); 40 nM) | relative viability (UMB1949 (TSC2-deficient); 200 nM) | relative viability (UMB1949 (TSC2-deficient); 1000 nM) | relative viability (UMB1949 (TSC2-deficient); 5000 nM)
1 | O=C(/C=C/c1ccc(CN(CCO)CCc2c[nH]c3ccccc23)cc1)NO [LAQ824] | 92.2 ± 3.3% | 87.2 ± 0.88% | 83.3 ± 3.2% | 54.8 ± 0.8% | 31.7 ± 1.1% | 16.2 ± 0.46% | 94.4 ± 1.2% | 94.1 ± 1.4% | 67.9 ± 1.9% | 21.1 ± 0.62% | 2.61 ± 0.065% | 1.459 ± 0.0077% | 1.04 | 0.934 | 0.921 | 0.89 | 0.628 | 0.173 | 0.0545 | 0.00134 | 0.000846 | 1.01 | 0.942 | 0.887 | 0.67 | 0.0147 | 0.00199 | 0.000488 | 0.000621 | 0.000364
2 | COC1=CC(c2cc3ccccc3[nH]2)=N/C1=C\c1[nH]c(C)cc1C [Obatoclax Mesylate] | 116.6 ± 0.46% | 115 ± 5.2% | 101.8 ± 0.93% | 54 ± 2.3% | 16.9 ± 0.25% | 5.18 ± 0.8% | 102.9 ± 0.9% | 99.7 ± 1.6% | 96.8 ± 0.97% | 68.9 ± 2% | 28.8 ± 0.29% | 5.57 ± 0.73% | 1.24 | 0.96 | 1.05 | 1.17 | 1.06 | 0.847 | 0.128 | 0.00422 | 0.00238 | 1.1 | 1.01 | 1.06 | 1.08 | 1 | 0.616 | 0.0115 | 0.00837 | 0.0101
3 | CC(C)C[C@@H](C=O)NC(=O)[C@H](CC(C)C)NC(=O)[C@H](CC(C)C)NC(=O)OCc1ccccc1 [MG132] |  |  |  |  |  |  |  |  |  |  |  |  | 0.611 | 0.586 | 0.383 | 0.272 | 0.148 | 0.00944 | 0.00319 | 0.00253 | 0.0116 | 0.846 | 0.0534 | 0.0466 | 0.00704 | 0.00406 | 0.00242 | 0.00153 | 0.000971 | 0.00561
4 | CO[C@H]1C[C@@H]2CC[C@@H](C)[C@@](O)(O2)C(=O)C(=O)N2CCCC[C@H]2C(=O)O[C@H]([C@H](C)C[C@@H]2CC[C@@H](OCCO)[C@H](OC)C2)CC(=O)[C@H](C)/C=C(\C)[C@@H](O)[C@@H](OC)C(=O)[C@H](C)C[C@H](C)/C=C/C=C/C=C/1C [Everolimus(RAD001)] |  |  |  |  |  |  |  |  |  |  |  |  | 0.753 | 0.734 | 0.706 | 0.696 | 0.681 | 0.543 | 0.391 | 0.325 | 0.276 | 1 | 0.899 | 0.985 | 0.9 | 0.936 | 0.847 | 0.781 | 0.401 | 0.461
5 | Nc1ccccc1NC(=O)c1ccc(CNc2nccc(-c3cccnc3)n2)cc1 [Mocetinostat] |  |  |  |  |  |  |  |  |  |  |  |  | 0.964 | 0.98 | 0.857 | 0.954 | 0.735 | 0.401 | 0.174 | 0.084 | 0.00442 | 1.24 | 1.09 | 1.05 | 1.02 | 0.951 | 0.578 | 0.0241 | 0.00165 | 0.00203
6 | CC(C)[C@H](C(=O)Nc1ccc(C(=O)NO)cc1)c1ccccc1 [AR-42] |  |  |  |  |  |  |  |  |  |  |  |  | 0.993 | 1.12 | 1.01 | 1.02 | 0.76 | 0.563 | 0.416 | 0.389 | 0.0646 | 1.03 | 1.11 | 1.12 | 1.07 | 0.89 | 0.548 | 0.0124 | 0.00772 | 0.00643
7 | CC(C)c1cc(C(C)C)c(CC(=O)NS(=O)(=O)Oc2c(C(C)C)cccc2C(C)C)c(C(C)C)c1 [Avasimibe] |  |  |  |  |  |  |  |  |  |  |  |  | 1.07 | 0.675 | 1.2 | 1.1 | 1.08 | 1.53 | 1.4 | 0.32 | 0.0125 | 1.13 | 1.12 | 1.19 | 1.06 | 1.08 | 1.1 | 1.02 | 0.00835 | 0.00834
8 | CN1CC[C@H](c2c(O)cc(O)c3c(=O)cc(-c4ccccc4Cl)oc23)[C@H](O)C1 [Flavopiridol hydrochloride] |  |  |  |  |  |  |  |  |  |  |  |  | 0.701 | 0.787 | 0.805 | 0.875 | 0.747 | 0.227 | 0.009 | 0.0076 | 0.0171 | 0.977 | 1 | 0.989 | 1.04 | 1.15 | 0.855 | 0.00837 | 0.00534 | 0.00482
9 | Nc1ccn([C@@H]2O[C@H](CO)[C@@H](O)[C@@H]2O)c(=O)n1 [Cytarabine] |  |  |  |  |  |  |  |  |  |  |  |  | 1.24 | 1.08 | 1.14 | 0.885 | 1.01 | 0.505 | 0.244 | 0.096 | 0.0178 | 0.98 | 0.941 | 0.967 | 0.962 | 0.974 | 0.929 | 0.176 | 0.00531 | 0.0022
10 | Cc1ccc(NC(=O)c2ccc(CN3CCN(C)CC3)cc2)cc1Nc1nc(-c2cccnc2)cs1 [Masitinib(AB1010)] |  |  |  |  |  |  |  |  |  |  |  |  | 0.869 | 0.9 | 0.886 | 0.951 | 0.909 | 0.82 | 0.683 | 0.277 | 0.0135 | 1.09 | 1.21 | 1.16 | 1.18 | 1.09 | 1.19 | 0.96 | 0.156 | 0.0043
11 | CN1CC[C@H](c2c(O)cc(O)c3c(=O)cc(-c4ccccc4Cl)oc23)[C@H](O)C1 [Flavopiridol(Alvocidib)] |  |  |  |  |  |  |  |  |  |  |  |  | 1.14 | 1.2 | 1.24 | 1.15 | 0.972 | 0.212 | 0.00428 | 0.00239 | 0.00377 | 1.12 | 1.16 | 1.04 | 1.21 | 1.08 | 0.923 | 0.00682 | 0.00291 | 0.00348
12 | CC[C@@]1(O)C(=O)OCc2c1cc1n(c2=O)Cc2cc3ccccc3nc2-1 [Camptothecin] |  |  |  |  |  |  |  |  |  |  |  |  | 0.843 | 0.818 | 0.747 | 0.485 | 0.166 | 0.178 | 0.00844 | 0.00416 | 0.00456 | 0.995 | 0.913 | 0.83 | 0.129 | 0.0117 | 0.00478 | 0.00188 | 0.00182 | 0.00462
